Source: patent US5672585A, “Method and composition for treating thrombosis” (priority 1995, dated 1997)
pIC50: −log10 of the molar value. Like-named read-outs stand apart in the source and are kept apart here.

Columns and labels:
platelets [1] = assay: Ex vivo inhibition of platelet aggregation (Table IV); format: in vivo, dog; conditions: for ex vivo inhibition of platelet aggregation (%): dose as listed per peptide in Table IV; for ex vivo platelet aggregation: doses of Table IV
Procedure: Platelet aggregation assays were performed following the methods of this Example or those of Example IX.G. Platelet aggregation was assessed using the method of Born, (Nature 194:927-929 (1962)), incorporated herein by reference. Briefly, the change in light transmission was measured through a stirred suspension of platelets in an aggregometer (Model 400 VS, Chrono-Log, Hayertown, Pa., USA). […] In studies using thrombin, the PRP was gel-filtered on Sepharose 2B in divalent ion-free Tyrode's solution containing 2% BSA. For all studies, the reference standard was platelet-poor plasma, which was obtained by centrifuging PRP at 1000×g for 5 min.
All aggregation studies were performed at 37° C. with a constantly stirred suspension of 3×10^8 platelets/ml. (Platelet count was determined with the aid of a hemacytometer.) Peptides and stimulants were added to these suspensions in 1% dilutions. The PRP and gel-filtered platelets were used within three hours from the time of blood collection.
Peptide anti-aggregation potencies were determined from dose-responsive curves for the inhibition of the maximum aggregation responses stimulated by physiologic doses of ADP (10 μm) and thrombin (2 U/ml).
Using the method described in Example V to measure ex vivo inhibition of platelet aggregation and the method described in Example VII to measure bleeding, four additional peptides were tested. These peptides included 11J, 11Q, 11K and 11V.

platelets [2] = format: cell-based; conditions: substitution of Arg at position 4
Procedure: Platelet aggregation was assessed using the method of Born, Nature 194:927-929 (1962), incorporated herein by reference. Briefly, the change in light transmission was measured through a stirred suspension of platelets in an aggregometer (Model 400 VS, Chrono-Log, Hayertown, Pa., USA). […] In studies using thrombin, the PRP was gel-filtered on Sepharose 2B in divalent ion-free Tyrode's solution containing 2% BSA. For all studies, the reference standard was platelet-poor plasma, which was obtained by centrifuging PRP at 1000×g for 5 min.
All aggregation studies were performed at 37° C. with a constantly stirred suspension of 3×10^8 platelets/mL. (Platelet count was determined with the aid of a hemacytometer.) Peptides and stimulants were added to these suspensions in 1% dilutions. The PRP and gel-filtered platelets were used within three hours from the time of blood collection.
The peptides described in this Example were synthesized according to the methods of Examples I and XI. Selectivity and potency were measured according to the methods of Examples II through XI. The peptide identification numbers used in this Example are consistent and relevant to this Example only. Some of the peptides are identified by other nomenclature elsewhere in this document.

[3] = biological target: vitronectin receptor (Vn-R); assay: VnR binding, ELISA or liposome attachment assay (Table I); set-up: species or system human; conditions: purified receptor
Procedure: Receptor and ligand purifications were performed according to the methods in this Example or those in Examaple XI.C. Receptors were purified according to the procedures of Pytela et al. (Methods Enzymol. 144:475 (1987)), incorporated herein by reference. […] Except where stated, all procedures were carried out at 4° C. The peptide column was washed with three volumes of Tris-buffered saline (TBS) containing 1 mM Ca^2+ and 25 mM OG and then with TBS containing 1 mM Ca^2+ and 25 mM octyl thioglucoside (OTG) at room temperature. […] Finally, Ca^2+ and Mg^+2 were added to eluted fractions to achieve final concentrations of 1 mM for both ions.
This assay was performed with minor modifications, according to the method of Pytela et al., Methods Enzymol. 144:475 (1987), incorporated herein by reference. Briefly, 1:4 mixture of labelled and unlabelled phosphatidylcholine (PC) liposomes was dissolved under nitrogen and diluted with an equal volume of purified receptor (purified as described in Example II) to achieve a fixed predetermined receptor-liposome concentration ratio. This mixture was then dialyzed overnight at 4° C. in phosphate buffered saline (PBS) containing 1 mM Ca^2+. An aliquot of the dialyzed sample was counted to assess radioactive content; the receptor-liposome mixture was then diluted to obtain a set radioactivity per unit volume.
Microtiter plates were coated with 10 μg of vitronectin. Non-specific sites were blocked for 2 hours at 37° C. in PBS containing 5 mg/ml BSA and 1 mM each of CaCl2 and MgCl2. The plates were then rinsed twice with PBS containing 1 mM Ca^+2 and Mg^+2, and 100 μl of the liposome-receptor mixture was added to each well. If necessary, peptides were added before this step in a 1-10% dilution. The plates were then incubated at 4° C. for 24 hours. The following day, the liquid in each well was aspirated and the plates were washed twice with PBS containing 1 mM Ca^+2 and Mg^+2. Finally, 100 μl of 2% SDS was added, the plates were shaken for 10-15 minutes, and the supernatants were collected, vortexed, and subjected to liquid scintillation counting. This procedure typically yielded ca. 1000 total and 100 non-specific counts per well.
In parallel studies with the platelet aggregation experiments (described in Example V), the apparent affinities of peptides for GP IIbIIa, fibronectin and vitronectin receptors were determined. Receptor-binding assays (as described in Examples III and IV) with purified receptors, were used to assess the abilities of the peptides to displace the binding of receptors to their receptor-specific ligands.
(§2) Those for VnR and GP IIb/IIIa were determined either by ELISA or liposome attachment assay (Example IV).

[4] = biological target: T1, Fibronectin receptor (Fn-R) (Homo sapiens, UniProt P05556+P08648); assay: FnR binding, competitive ELISA (Table I); conditions: purified receptor, * concentrations unconfirmed by amino acid composition analysis
T1 construct: Fibronectin receptor (Fn-R) was similarly purified from (100 mM) octyl glucoside-extracted human placenta; from tissue; host or cells: human placenta
T1 sequence (P08648 42-894 limits assumed): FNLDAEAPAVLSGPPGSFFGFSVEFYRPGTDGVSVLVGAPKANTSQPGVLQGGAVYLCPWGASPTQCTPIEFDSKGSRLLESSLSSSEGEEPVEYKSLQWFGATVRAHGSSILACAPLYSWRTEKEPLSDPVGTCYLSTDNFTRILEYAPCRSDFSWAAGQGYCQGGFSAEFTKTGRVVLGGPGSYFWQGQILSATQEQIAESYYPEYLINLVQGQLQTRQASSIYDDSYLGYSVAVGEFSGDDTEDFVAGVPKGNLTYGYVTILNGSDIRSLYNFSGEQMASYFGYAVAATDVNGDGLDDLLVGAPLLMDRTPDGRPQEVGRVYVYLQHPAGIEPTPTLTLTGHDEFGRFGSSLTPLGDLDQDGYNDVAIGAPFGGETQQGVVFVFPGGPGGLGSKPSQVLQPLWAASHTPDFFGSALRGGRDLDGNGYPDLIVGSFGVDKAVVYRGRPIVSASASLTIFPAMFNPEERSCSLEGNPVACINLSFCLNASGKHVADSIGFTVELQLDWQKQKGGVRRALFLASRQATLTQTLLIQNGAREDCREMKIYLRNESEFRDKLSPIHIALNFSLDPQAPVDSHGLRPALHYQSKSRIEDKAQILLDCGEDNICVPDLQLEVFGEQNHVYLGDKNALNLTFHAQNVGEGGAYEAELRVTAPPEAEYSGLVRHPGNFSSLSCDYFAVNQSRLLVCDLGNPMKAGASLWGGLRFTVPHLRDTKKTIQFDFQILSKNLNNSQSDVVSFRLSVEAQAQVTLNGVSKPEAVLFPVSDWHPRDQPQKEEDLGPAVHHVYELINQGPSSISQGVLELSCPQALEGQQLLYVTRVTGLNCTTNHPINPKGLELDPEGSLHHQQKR
T1 sequence (P08648 895-1049 partner limits assumed): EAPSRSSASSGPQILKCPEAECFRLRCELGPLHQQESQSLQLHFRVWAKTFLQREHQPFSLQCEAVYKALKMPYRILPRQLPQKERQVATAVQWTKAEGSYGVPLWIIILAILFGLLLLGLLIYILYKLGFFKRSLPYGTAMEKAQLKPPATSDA
T1 sequence (P05556 21-798): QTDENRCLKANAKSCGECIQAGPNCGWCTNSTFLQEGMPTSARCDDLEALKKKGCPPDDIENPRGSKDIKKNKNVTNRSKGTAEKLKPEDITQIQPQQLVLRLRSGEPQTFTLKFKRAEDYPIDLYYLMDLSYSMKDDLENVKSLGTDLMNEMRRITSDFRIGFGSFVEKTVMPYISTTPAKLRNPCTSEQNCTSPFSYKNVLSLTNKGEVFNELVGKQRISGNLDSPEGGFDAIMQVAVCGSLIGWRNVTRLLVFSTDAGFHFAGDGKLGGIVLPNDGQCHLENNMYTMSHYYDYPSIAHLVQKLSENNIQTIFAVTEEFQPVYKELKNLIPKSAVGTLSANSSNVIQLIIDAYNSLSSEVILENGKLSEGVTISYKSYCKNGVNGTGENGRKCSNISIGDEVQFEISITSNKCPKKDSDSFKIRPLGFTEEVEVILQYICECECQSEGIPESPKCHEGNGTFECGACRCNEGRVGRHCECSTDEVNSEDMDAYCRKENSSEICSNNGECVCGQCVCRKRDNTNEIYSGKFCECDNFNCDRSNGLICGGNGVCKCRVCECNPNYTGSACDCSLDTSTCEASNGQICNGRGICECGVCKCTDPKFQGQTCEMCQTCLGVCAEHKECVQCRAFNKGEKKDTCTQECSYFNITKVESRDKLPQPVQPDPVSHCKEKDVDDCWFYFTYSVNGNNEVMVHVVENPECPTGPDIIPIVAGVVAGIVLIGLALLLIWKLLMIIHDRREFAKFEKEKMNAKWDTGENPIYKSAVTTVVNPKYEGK
Procedure: Peptide binding to purified Fn-R was determined by using a competitive enzyme-linked immunosorbent assay (ELISA) in which fibronectin is immobilized and the binding of solubilized Fn-R and the binding of solubilized FN-R, in the presence of various concentrations of peptide analogue, is detected with a polyclonal anti-Fn-R antibody followed by a labelled anti-rabbit IgG conjugate.
Microtiter plates were coated with 110 μl of human fibronectin (at 2 μg/ml) in TBS. The plates were washed three times with TBS that contained 0.05% Tween 20. 50 microliters of receptor in TBS containing 20 mM octylglucoside and 2 mM NmCl2 was added to each well. 50 microliters of peptide in the same buffer was then added in 10-fold serial dilutions. The plates were incubated for three hours at room temperature, washed with 200 μl of the above TBS-Tween buffer. 100 μl of affinity-purified rabbit anti-human fibronectin receptor antibody was added to the wells and the plates were incubated for an additional two hours, washed twice with TBS-Tween and then distilled water. Affinity-purified goat anti-rabbit IgG conjugated to horseradish peroxidase (100 μl) was then added to each well. Bonding reactions were incubated for 16 hours at room temperature. The following day, the plates were washed twice with TBS-Tween and then distilled water. […]
IC50 s for FnR were determined by ELISA (Example III).

platelets [5] = assay: Platelet aggregation on PRP of the peptide-treated baboon; format: in vivo; conditions: baboon animal 2, ADP 10 μm, 0, 1 and 2 hours
Procedure: At one- and two-hour time points, template bleeding times were measured, and blood samples were drawn to assess the hematology aggregation studies. Platelet aggregation studies were performed as described in Example V using ADP as the stimulus.
In addition, platelet aggregation studies were conducted on PRP derived from the second animal. Whole blood was drawn at three time points (0, 1 and 2 hours) of both control and experimental shunts.

coronary thrombosis = assay: Electrically induced canine coronary thrombosis, time to full occlusion; format: in vivo; conditions: dog; for coronary thrombosis, time to full occlusion: 10 mg/kg
Procedure: Male mongrel dogs weighing 14 to 20 kg were selected based on proper aggregation of their platelets in response to arachidonic acid, collagen, and adenosine disphosphate (ADP) and based on similar weights and hemodynamic properties.
Before surgery, the animals were anesthetized with sodium pentobarbital (30 mg/kg, i.v.) and then intubated and ventilated on room air with positive pressure using a respirator (Harvard Apparatus, S. Natick, Mass.) at a volume of 30 ml/kg and a frequency of 12 breaths/min. Surgery, performed under aseptic conditions, was begun with the placement of cannulae into the left carotid artery and jugular vein for monitoring arterial blood pressure (Statham P23 pressure transducer, Gould, Inc., Cardiovascular Products, Oxnard, CA) and administering intravenous fluids.
The heart was exposed via a left thoracotomy through the 5th intercostal space. A 2-cm segment of the left circumflex coronary artery (LCCA) was isolated from surrounding tissue by blunt dissection. […] The intra-coronary electrode was constructed by attaching a 25-gauge hypodermic needle tip to a 30-gauge Teflon-insulated silver-coated copper wire. The mechanical occluder was constructed of stainless steel in a C shape with a Teflon screw (2 mm diameter) on top. It was adjusted to control vessel circumference and decrease the reactive hyperemic flow due to a 10-sec (full) occlusion by 50-70% without affecting basal coronary blood flow (FIG. 1C). A monopolar epicardial electrode was sutured to the surface of the ventricle in the region of LCCA distribution to monitor ischemic changes in the electrocardiogram (ECG). The left atrium was cannulated with polythylene tubing for administration of the peptide. Continuous recordings of blood pressure, limb lead II ECG, epicardial electrogram, and mean and phasic LCCA blood flow were obtained on a Model 7 polygraph (Grass Instrument Co., Quincy, Mass.).
One hour after the completion of surgery, a 100 micro-amp continuous anodal direct current delivered from a 9 volt nickel-cadmium battery was applied to the intimal surface of the LCCA. The anode of the battery was in series with a 250,000 ohm potentiometer and the intraluminal coronary artery electrode. The electric circuit was completed by placing the cathode in a subcutaneous site. Electrical stimulation was applied for three hours. At the conclusion of each experiment, the heart was fibrillated electrically and quickly removed, and the LCCA was dissected free as far as possible to verify the position of the implanted anodal electrode.
(§1) Animals were randomly assigned to two treatment groups: vehicle control (i.e., normal saline) or RGD peptides at various concentrations. Peptides were administered intra-atrially in both bolus and continuous injections. Each bolus injection consisted of 0.5 to 10 mg/kg and was administered 15 minutes before application of the current. A continuous infusion of the same peptide was then started immediately after completion of this initial injection. Animals received a 25 μg/kg/min to 200 μg/kg/min infusion. The anti-thrombotic effects of the peptides were monitored until 30 minutes after the occurrence of a persistent, occlusive thrombus or five hours after the initiation of electrical stimulation (whichever resulted first). If an occlusive thrombus had not developed within four hours after the initiation of current, the peptide infusion was stopped.
Coronary thrombosis was quantified as the time to full occlusion. The effects of the various peptide treatments on coronary thrombosis is illustrated in FIG. 4.

canine platelets = assay: Canine platelet aggregation in vitro (ADP, arachidonic acid, collagen); format: cell-based, dog; conditions: stimulated by 10 μm ADP, […] arachidonic acid or 9.6 micrograms/ml collagen
[6] = system: Gore-tex vascular graft thrombosis; assay: Platelet and fibrinogen uptake by Gore-Tex grafts, baboon ex vivo shunt; format: in vivo
Procedure: Adult male baboons (weighing 16 to 25 kg) were used in these studies. These were sedated with ketamine hydrochloride (200 to 250 mg intramuscular injection) and maintained under anesthesia with sodium pentobarbital (50 to 75 mg administered intravenously as necessary).
Twenty-four hours before the ex vivo shunt was established, platelets were isolated from 500 ml of blood from the test animal and labelled with ca. 500 microcuries of indium-111 oxine (Medi+Physics, Emeryville, Calif.), which irreversibly and specifically binds to platelets with an efficiency of 50%. Immediately after labelling, these platelets were then injected back into the animal and allowed to circulate for 24 hours. Immediately before the start of the study, fibrinogen that had been isolated from the animal and labelled with iodine-131 (DuPont Nuclear, Boston, Mass.) was also injected back into the animal. Also at this time, baseline determinations of the clotting and template bleeding times were made, and blood samples were drawn for hematology studies.
To establish the ex vivo shunt, the femoral artery and vein were percutaneously cannulated with introducer catheters (KMA Inc., Mansfield, Mass.). The catheters were then connected to medical-grade, heparin-coatedsilastic tubing (2.59 mm internal diameter, (Extracorporeal Medical Specialties, Inc., King of Prussia, Pa.). […] Finally, a 5 cm-long test segment of a 4 mm (internal diameter) vascular graft was inserted at the apex of the circuit. The graft used in these studies was Gore-tex (expanded polytetrafluoroethylene, (W. L. Gore and Associates, Inc., Flagstaff, Az). An electromagnetic flow probe was then inserted into the tubing circuit to measure blood flow, which was maintained at 100 ml/min. by varying the resistance imported by a partially occluding screw clamp that was distal to the probe. Finally, a 5 cm-long test segment of a 4 mm (internal diameter) vascular graft was inserted at the apex of the circuit. The graft used in these studies was Gore-tex (expanded polytetrafluoroethylene, W. L. Gore and Associates, Inc., Flagstaff, Ariz.).
Platelet deposition onto the grafts was monitored by dynamic scanning with a gamma camera (Sigma 400, Ohio Nuclear, Inc., Sohon, Ohio), which detects the gamma radiation emitted by the ^111 indium-labelled platelets. Once the circuit was in place, the animal was placed under this camera, and blood flow was initiated. Scans were then taken at the rate of one frame per two minutes for two hours. The data from these scans were collected on a dedicated Digital MDA computer (Maynard, Mass.). […]

platelets [7] = assay: Ex vivo platelet aggregation in the canine coronary thrombosis study; conditions: dog
Procedure: For all ex vivo studies (see FIGS. 3A, 3B1, 3B2, 3B3, 3C1 and 3C2), control aggregation values were standardized to the percentages of light transmission observed in PRP and PPP samples (0% and 100%, respectively).
as §1
Platelet counts and ex vivo aggregation studies were performed one hour before and 1, 3, and 5 hours after application of anodal direct current.
Platelet aggregation was also determined ex vivo at one, three, and five hours after current application. For these studies, arachidonic acid, or collagen was again used to stimulate the platelets.

platelets [8] = assay: Thrombin-stimulated platelet aggregation (Table I); conditions: read-out: Thrombin Stimulated Aggregation; thrombin 2 U/ml, gel-filtered platelets, 37° C.
GP IIb/IIIa = GP IIb/IIIa (Homo sapiens, UniProt P05106+P08514); assay: IIb/IIIa binding, ELISA or liposome attachment assay (Table I); set-up: Platelet glycoprotein IIb/IIIa was purified from outdated human platelets; from tissue; host or cells: outdated human platelets; conditions: purified receptor
GP IIb/IIIa, sequence (P08514 32-887 limits assumed): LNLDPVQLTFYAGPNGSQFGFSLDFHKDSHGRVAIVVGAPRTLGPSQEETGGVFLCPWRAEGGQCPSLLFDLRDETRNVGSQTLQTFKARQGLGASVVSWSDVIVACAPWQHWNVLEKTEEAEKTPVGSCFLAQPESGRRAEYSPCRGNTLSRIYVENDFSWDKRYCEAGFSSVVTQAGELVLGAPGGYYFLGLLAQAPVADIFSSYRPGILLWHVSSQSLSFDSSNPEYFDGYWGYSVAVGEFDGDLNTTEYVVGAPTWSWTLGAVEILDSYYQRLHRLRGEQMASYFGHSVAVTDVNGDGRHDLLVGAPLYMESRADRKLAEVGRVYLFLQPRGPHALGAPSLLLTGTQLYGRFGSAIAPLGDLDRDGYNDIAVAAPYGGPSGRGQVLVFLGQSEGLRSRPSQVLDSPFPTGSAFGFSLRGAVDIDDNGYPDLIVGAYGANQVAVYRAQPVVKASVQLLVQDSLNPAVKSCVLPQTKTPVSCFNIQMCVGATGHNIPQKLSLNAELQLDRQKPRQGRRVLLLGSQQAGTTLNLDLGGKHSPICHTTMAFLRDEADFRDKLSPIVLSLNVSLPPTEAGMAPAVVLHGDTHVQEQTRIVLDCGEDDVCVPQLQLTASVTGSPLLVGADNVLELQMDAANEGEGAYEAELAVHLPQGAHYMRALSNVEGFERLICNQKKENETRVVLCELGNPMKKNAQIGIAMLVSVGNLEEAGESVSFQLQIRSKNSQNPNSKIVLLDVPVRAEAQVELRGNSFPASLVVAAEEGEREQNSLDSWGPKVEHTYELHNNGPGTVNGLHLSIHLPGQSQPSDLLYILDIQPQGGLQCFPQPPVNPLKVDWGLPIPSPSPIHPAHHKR
GP IIb/IIIa, sequence (P08514 891-1039 partner limits assumed): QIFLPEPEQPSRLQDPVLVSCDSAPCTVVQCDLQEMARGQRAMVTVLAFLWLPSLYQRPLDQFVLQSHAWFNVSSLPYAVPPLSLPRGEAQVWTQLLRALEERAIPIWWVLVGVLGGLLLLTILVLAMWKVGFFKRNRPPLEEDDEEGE
GP IIb/IIIa, sequence (P05106 27-788): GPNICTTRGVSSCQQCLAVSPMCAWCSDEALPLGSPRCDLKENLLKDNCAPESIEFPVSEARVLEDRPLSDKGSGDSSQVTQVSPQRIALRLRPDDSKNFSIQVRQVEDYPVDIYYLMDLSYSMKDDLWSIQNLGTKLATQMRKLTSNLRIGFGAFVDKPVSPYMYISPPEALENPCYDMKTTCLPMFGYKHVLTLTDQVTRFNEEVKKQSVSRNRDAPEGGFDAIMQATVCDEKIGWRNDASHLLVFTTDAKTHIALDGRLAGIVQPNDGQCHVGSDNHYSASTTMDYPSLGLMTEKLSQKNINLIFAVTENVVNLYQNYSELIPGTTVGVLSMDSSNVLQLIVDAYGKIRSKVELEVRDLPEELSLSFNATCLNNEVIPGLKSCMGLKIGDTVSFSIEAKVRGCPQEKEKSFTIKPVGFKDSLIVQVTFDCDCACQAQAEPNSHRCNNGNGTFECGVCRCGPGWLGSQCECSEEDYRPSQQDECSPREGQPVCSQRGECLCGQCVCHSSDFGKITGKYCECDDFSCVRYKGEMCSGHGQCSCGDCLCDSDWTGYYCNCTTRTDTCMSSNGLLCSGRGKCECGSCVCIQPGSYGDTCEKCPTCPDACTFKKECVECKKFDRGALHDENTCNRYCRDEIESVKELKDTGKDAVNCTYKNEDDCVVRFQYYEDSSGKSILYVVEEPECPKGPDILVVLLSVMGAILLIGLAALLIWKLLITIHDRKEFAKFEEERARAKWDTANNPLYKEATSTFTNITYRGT
Procedure: Microtiter plates, 96 wells were coated (Type Nunc 1 Maxispor™) with 10 μg/ml purified fibrinogen (100 μl/well), and allowed to stand overnight at 4° C. The plates were washed three times with PBS Tween, 0.137M NaCl, 0.003M KCl, 0.008M Na2 HPO4, pH 7.4 at room temperature, 0.05% Tween-20 and blocked for 1 to 2 hours at room temperature with 200 μl/well TNCNT (which is 0.5% BSA, 20 mM Tris, pH 7.5 at room temperature, 120 mM NaCl, 0.2% NAN3, 2 mM CaCl2, 0.05% Tween 20, [Calbiochem RIA grade or better]) on a plate shaker. The plates were again washed three times with PBS/Tween and 50 μl of sample in TNCNT is added. The mixture was incubated for 15 minutes at room temperature on a plate shaker. The stock solution of purified GPIIb IIIa receptor from human platelets, (0.4-1.0 mg/ml GPIIb IIIa in 0.1% Triton X-100, 1 mM CaCl2, 20 mM Tris, 150 mM NaCl, 0.05% NaN3 in 0.3M N-acetyl glucosamine pH 7.5, stored at -70° C.), was reconstituted in TNCNT. Fifty (50) μl of this diluted GPIIb IIIa was then added to each well and incubated on a plate shaker at room temperature. […] The optical density at 492 nm vs 405 nm was recorded and IC50 values are determined.
as §2

[9] = read-out: IC50 against canine platelet aggregation
[10] = baboon animal 1, two bolus IV injections of 10 mg/kg
[11] = baboon animal 2, 10 mg/kg bolus IV then 10 mg/kg/hr infusion for two hours

Ac- CNPKGD(Y--OMe)RC--NH2 [Peptide 11Q]
ex vivo inhibition of platelet aggregation (%) (platelets [1]): > 95% | ex vivo platelet aggregation (platelets [1]): inhibited ex vivo platelet aggregation

Ac- CNPRGD(Y--OMe)(Nle)C--NH2 [Peptide 11V]
ex vivo inhibition of platelet aggregation (%) (platelets [1]): > 98% | ex vivo platelet aggregation (platelets [1]): inhibited ex vivo platelet aggregation

Ac- CNPRGD(Y--OMe)AC--NH2 [Peptide 11K]
ex vivo inhibition of platelet aggregation (%) (platelets [1]): > 98% | ex vivo platelet aggregation (platelets [1]): inhibited ex vivo platelet aggregation | platelet aggregation potency compared with analogue 32 (platelets [2]): substantial decreases in platelet aggregation potency

Ac- CNPRGD(Y--OMe)EC--NH2 [Peptide 11J]
ex vivo inhibition of platelet aggregation (%) (platelets [1]): > 98% | ex vivo platelet aggregation (platelets [1]): inhibited ex vivo platelet aggregation | decrease in platelet aggregation potency relative to analogue 32 (platelets [2]): 15 fold

FRGDSPDG
pIC50 [3]: 7.40 | pIC50 [4]: 5.62

G(Pen)GHRGDLRCA [Peptide 2G]
platelet aggregation in PRP (platelets [5]): completely unresponsive | coronary thrombosis, time to full occlusion (coronary thrombosis): did not significantly influence this frequency | pIC50 (canine platelets; [9]): 4.52 to 4.82 | reduction in 111In-platelet uptake by graft [6, 10]: 90% | reduction in 131I-fibrinogen uptake by graft [6, 10]: 79% | reduction in labelled fibrinogen uptake by graft [6, 11]: 78% | reduction in labelled platelet uptake by graft [6, 11]: 84% | ex vivo ADP-stimulated aggregation (platelets [7]; 10 mg/kg injected, 1, 3 and 5 h): substantially inhibited

GRGDSP [reference compound]
pIC50 (canine platelets; read-out: concentration inhibiting all three canine platelet aggregation responses by 50%): ~3.89

LRGDSPDG
pIC50 [3]: 6.70

R(Pen)GRGDWPCR [Peptide 4R]
coronary thrombosis, occlusion (coronary thrombosis; 3 mg/kg): ineffective | coronary thrombosis, time to full occlusion (coronary thrombosis): prevented occlusion throughout the duration of the study | pIC50 (canine platelets; [9]): 5.30 to 5.82 | ex vivo platelet aggregation by ADP, AA and collagen (platelets [7]; 10 mg/kg injection): unresponsive to all modes of stimulation at all time points | pIC50 (platelets [8]): 6.28

VRGDSPDG
pIC50 (GP IIb/IIIa): 6.57 | pIC50 [3]: 6.62 | pIC50 [4]: 7.40

YRGDSPDG
pIC50 [3]: 7.10
